Patent US5696117A, “Benzoxazine antimicrobial agents” (Ortho Pharmaceutical Corporation, priority 1995, dated 1997)

Molecular target: T1, Kinase A and SpoOF (Bacillus subtilis, UniProt P16497)
T1 construct: made in house; host or cells: recombinant E. coli (overexpression)
T1 sequence (P16497 1-606): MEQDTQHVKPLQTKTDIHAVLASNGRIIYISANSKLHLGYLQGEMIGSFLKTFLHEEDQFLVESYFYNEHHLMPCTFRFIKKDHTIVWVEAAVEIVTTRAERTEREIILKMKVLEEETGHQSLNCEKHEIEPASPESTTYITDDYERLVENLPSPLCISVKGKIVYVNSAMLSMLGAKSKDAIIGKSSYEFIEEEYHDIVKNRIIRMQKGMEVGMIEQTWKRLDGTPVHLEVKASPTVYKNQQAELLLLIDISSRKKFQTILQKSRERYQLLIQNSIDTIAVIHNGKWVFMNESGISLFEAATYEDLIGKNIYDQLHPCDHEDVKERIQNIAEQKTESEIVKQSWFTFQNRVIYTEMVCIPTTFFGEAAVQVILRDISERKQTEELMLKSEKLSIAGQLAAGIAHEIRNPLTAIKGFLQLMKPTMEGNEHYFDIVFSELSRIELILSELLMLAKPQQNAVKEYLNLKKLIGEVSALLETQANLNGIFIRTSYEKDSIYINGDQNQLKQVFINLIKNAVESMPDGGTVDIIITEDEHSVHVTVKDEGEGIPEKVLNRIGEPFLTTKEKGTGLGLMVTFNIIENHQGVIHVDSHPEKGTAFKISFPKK
Experiment: Autophosphorylation of Kinase A and Transphosphorylation of SpoOF Assay (HPK in vitro assay)
Type: biochemical
Conditions: inhibition of KinA autophosphorylation / SpoOF transphosphorylation, inhibitor concentrations from 1 to 500 μM
Procedure: 1. Autophosphorylation of Kinase A and Transphosphorylation of SpoOF Assay
To study the effect of the compounds of the present invention on the signal transduction process in bacteria, the inhibiting effect of the compounds on the sporulation operon proteins Kinase A and SpoOF was examined. Specifically, the inhibition of autophosphorylation of Kinase A and the transphosphorylation of SpoOF was determined in the following assays. The SpoOF response regulator is the primary substrate for phosphorylation by the protein kinase, Kin A, involved in the sporulation process in bacteria. See D. Burbulys, K. A. Trach, J. A. Hoch, Cell, 64, 545-552 (1991). SpoOF and KinA were prepared from recombinant E. coli overexpressing the proteins (J. Cavanagh et al, Amino Acids, 6, 131-140 (1994) and references therein).
The following stock reagents were either prepared and used promptly or stored at the indicated temperature:
8× Salts: 2M KCl (5 mL), 1M MgCl2 (800 mL), 1M CaCl2 (100 mL), 10 mg/mL phenylmethylsulfonyl fluoride (200 mL), 1M dithioreitol (50 mL), 0.25M Na2 EDTA (32 mL) and H2 O 3.82 mL (-20° C.)
5× Loading Dye: 0.5M TRIS-HCl-pH 6.8 (7.5 mL), 10% SDS (2 mL) 0.1% bromophenol blue (0.5 mL), 100% glycerol (3 mL) and 12.5M 2-mercaptoethanol (0.3 mL)
1-1.3 mg/mL KinA:15 mM TRIS-HCl, pH 8.0, 6 mM KCl; 4 mM 2-mercaptoethanol; 40% glycerol (-20° C.)
1 mg/mL SpoOF: 17.5 mM TRIS-HCl, pH 8.0; 0.7 mM KCl; 0.7 mM MgCl2; 0.7 mM CaCl2; 5mM 2-mercaptoethanol; 30% Glycerol (-20° C.)
5% Stacking Gel: 40% 29:1 acrylamide:bis acrylamide (1.25 mL), 0.5M TRIS-HCl, pH 6.8 (2.5 mL), 10% SDS (0.1 mL), D-H2 O (6.15 mL) 10% ammonium persulfate (100 mL) and TEMED (25 mL)
SDS Running Buffer: TRIS-BASE (3.02 g), glycine (14.4 g) SDS (1 g), D-H2 O (to 1 L)
The reaction mixture was prepared from 8× Salts (87 μL), 1M TRIS, pH 8 (118 μL), 50% glycerol (63 μL), SpoOF (14.1 μL) and KinA (7.0 μL). Microcentrifuge tubes were charged with the reaction mixture (18.5 μL) and a 1.0 mM solution of the test compound in 5% DMSO (18.5 μL), and incubated for 15 min on ice. 100 mM ATP solution (3.0 μl, containing 625 μCi [^32 P]ATP) was added, and the mixture left for 10 minutes at room temperature. The reaction was quenched with 5× loading dye (10 μL per tube) and the samples were loaded on a prepared 5% Stacking Gel, or stored on dry ice until ready for use. The prepared wells were filled with SDS Running Buffer, samples were loaded into the wells, and 80 volts were applied to the gel until the dye front reached the bottom of the stacking gel. The voltage was then increased to 250 volts until electrophoresis was complete. Radioactive bands in the gel corresponding to phosphorylated KinA and SpoOF were imaged and quantitated with a phosphoimager.
If either enzyme was inhibited (as evidenced by the absence of labelled protein in the developed gel), an IC50 was calculated by running the assay with a range of inhibitor concentrations from 1 to 500 μM. After electrophoresis of the reaction mixtures, percent inhibition was determined by measuring the concentration of radioactive phosphorus with a phosphoimager and calculating the values using a software program (BioRad Molecular Analyst). IC50 values of less than 500 μM are considered active.

| Compound | IC50 |
| --- | --- |
| N=C(N)NCCc1ccc(OCCC2Oc3ccccc3N(Cc3ccc4ccccc4c3)C2=O)cc1 (stereo not shown) [Compound 45, 3,4-Dihydro-2-{2-[4-(2-guanidinylethyl)phenoxy]ethyl}-4-(2-naphthylmethyl)-3-oxo-2H-1,4-benzoxazine] | 17 µM |
| COc1ccccc1CN1C(=O)C(CCOc2ccc(CCNC(=N)N)cc2)Oc2ccccc21 (stereo not shown) [Compound 29, 3,4-Dihydro-2-{2-[4-(2-guanidinoethyl)phenoxy]ethyl}-4-(2-methoxybenzyl)-3-oxo-2H-1,4-benzoxazine] | 54 µM |
| CC(C)(C)OC(=O)NCc1cccc(OCCC2Oc3ccccc3N(Cc3cccc(Cl)c3)C2=O)c1 (stereo not shown) [Compound 73, 2-{2-[3-(t-Butoxycarbonylaminomethyl)phenoxy]ethyl}-4-(3-chlorobenzyl)-3,4-dihydro-3-oxo-2H-1,4-benzoxazine] | 354 µM |
| N=C(N)NCCc1ccc(OCCC2Oc3cccnc3N(Cc3cccc(Cl)c3)C2=O)cc1 (stereo not shown) [Compound 25, 4-(3-Chlorobenzyl)-3,4-dihydro-2-[2-[4-(2-guanidinoethyl)phenoxy]ethyl]-3-oxo-2H-pyrido[3,2-b]-1,4-oxazine] | 41 µM |
| COC(=O)c1cccc(CN2C(=O)C(CCOc3ccc(CCN)cc3)Oc3ccccc32)c1 (stereo not shown) [Compound 106, 2-{2-[4-(2-Aminoethyl)phenoxy]ethyl}-4-(3-carbomethoxybenzyl)-3,4-dihydro-3-oxo-2H-1,4-benzoxazine] | 166 µM |
| CC(C)(C)OC(=O)N=C(NCc1ccc(OCCC2Oc3ccccc3N(Cc3cccc(Cl)c3)C2=O)cc1)NC(=O)OC(C)(C)C (stereo not shown) [Compound 77, 2-{2-[4-[(N,N-'Bis-tert-butoxycarbonyl)guanidinomethyl]phenoxy]ethyl}-4-(3-chlorobenzyl)-3,4-dihydro-3-oxo-2H-1,4-benzoxazine] | 51 µM |
| CC(C)(C)OC(=O)NCCc1ccc(OCCC2Oc3ccccc3N(Cc3cccc(C(=O)O)c3)C2=O)cc1 (stereo not shown) [Compound 111, 3-{3,4-Dihydro-2-[2-(4-(2-(-t-butoxycarbonylamino)ethyl)phenoxy)]ethyl-3-oxo-2H-1,4-benzoxazin-4-yl}methylbenzoic Acid] | 113 µM |
| N=C(N)NCCc1ccc(OCCC2Oc3ccccc3N(Cc3ccc([N+](=O)[O-])cc3)C2=O)cc1 (stereo not shown) [Compound 139, 3,4-Dihydro-2-{2-[4-(2-guanidinoethyl)-phenoxy]ethyl}-4-(4-nitrobenzyl)-3-oxo-2H-1,4-benzoxazine] | 24 µM |
| N=C(N)NCCc1ccc(OCCC2Oc3ccccc3N(Cc3cccc([N+](=O)[O-])c3)C2=O)cc1 (stereo not shown) [Compound 95, 3,4-Dihydro-2-{2-[4-(2-guanidinoethyl)phenoxy]ethyl}-4-(3-nitrobenzyl)-3-oxo-2H-1,4-benzoxazine] | 32 µM |
| N=C(N)NCCc1ccc(OCCC2Oc3ccccc3N(Cc3ccsc3)C2=O)cc1 (stereo not shown) [Compound 46, 3,4-Dihydro-2-{2-[4-(2-guanidinylethyl)phenoxy]ethyl}-3-oxo-2H-4-(3-thienylmethyl)-1,4-benzoxazine] | 68 µM |
| COc1ccc2c(c1)OC(CCOc1ccc(CCNC(=N)N)cc1)C(=O)N2Cc1cccc([N+](=O)[O-])c1 (stereo not shown) [Compound 100, 3,4-Dihydro-2-{2-[4-(2-guanidinoethyl)phenoxy]ethyl}-7-methoxy-4-(3-nitrobenzyl)-3-oxo-2H-1,4-benzoxazine] | 32 µM |
| N=C(N)NCCc1ccc(OCCC2Oc3c(Cl)cc(Cl)cc3N(Cc3cccc(Cl)c3)C2=O)cc1 (stereo not shown) [Compound 57, 4-(3-Chlorobenzyl)-6,8-dichloro-2-{2-[4-(2-guanidinoethyl)phenoxy]ethyl}-3,4-dihydro-3-oxo-2H-1,4-benzoxazine] | 17 µM |
| N=C(N)NCc1ccc(OCCC2Oc3ccccc3N(Cc3ccc(Cl)cc3)C2=O)cc1 (stereo not shown) [Compound 21, 4-(4-Chlorobenzyl)-2-[2-[4-(guanidinomethyl)phenoxy]ethyl]-3,4-dihydro-3-oxo-2H-1,4-benzoxazine] | 26 µM |
| Cc1ccc2c(c1)N(Cc1cccc(Cl)c1)C(=O)C(CCOc1ccc(CCNC(=N)N)cc1)O2 (stereo not shown) [Compound 24, 4-(3-Chlorobenzyl)-3,4-dihydro-2-[2-[4-(2-guanidinoethyl)phenoxy]ethyl]-6-methyl-3-oxo-2H-1,4-benzoxazine] | 56 µM |
| N=C(N)NCCc1ccc(OCCC2Oc3ccccc3N(Cc3csc(Cl)c3)C2=O)cc1 (stereo not shown) [Compound 48, 4-(2-Chloro-4-thienylmethyl)-3,4-dihydro-2-{2-[4-(2-guanidinoethyl)phenoxy]ethyl}-3-oxo-2H-1,4-benzoxazine] | 26 µM |
| NCCCc1ccc(OCCC2Oc3ccccc3N(Cc3ccc(Cl)cc3)C2=O)cc1 (stereo not shown) [Compound 142, 2-[2-[4-(3-Aminopropyl)phenoxy]ethyl]-4-(4-chlorobenzyl)-3,4-dihydro-3-oxo-2H-1,4-benzoxazine] | 42 µM |
| NCc1cccc(OCCC2Oc3ccccc3N(Cc3ccccc3Cl)C2=O)c1 (stereo not shown) [Compound 12, 2-[2-[3-(Aminomethyl)phenoxy]ethyl]-4-(2-chlorobenzyl)-3,4-dihydro-3-oxo-2H-1,4-benzoxazine] | 140 µM |
| CC(C)(C)OC(=O)NCCc1cccc(OCCC2Oc3ccccc3N(Cc3cccc(Cl)c3)C2=O)c1 (stereo not shown) [Compound 69, 2-{2-[3-(2-(t-Butoxycarbonylamino)ethyl)phenoxy]ethyl}-4-(3-chlorobenzyl)-3,4-dihydro-3-oxo-2H-1,4-benzoxazine] | 358 µM |
| Cl.N=C(N)NCCc1ccc(OCCC2Oc3cc([N+](=O)[O-])ccc3N(Cc3ccccc3Cl)C2=O)cc1 (stereo not shown) [Compound 87, 4-(2-Chlorobenzyl)-3,4-dihydro-2-{2-[4-(2-guanidinoethyl)phenoxy]ethyl}-7-nitro-3-oxo-2H-1,4-benzoxazine Monohydrochloride] | 11 µM |
